Source: patent US5648378A, “2-iminochromene derivatives as inhibitors of protein tyrosine kinase” (Research Corporation Technologies, Inc., priority 1995, dated 1997)
Converted amounts (≈) assume the structure as drawn. “Also recorded” adds a separate entry of the source.

Experiments:
[1] = target: T1, p60^c-src (Homo sapiens, UniProt P12931); experiment: kinase assay, purified p60c-src, poly [Glu,Tyr](4:1) substrate; format: biochemical; conditions: for IC50, p60^c-src: purified kinase, poly [Glu,Tyr](4:1) substrate; for potency relative to the hydroxylated parent compound (in words): hydroxymethyl versus hydroxy N-phenyl analogue
T1 construct: purchased Upstate Biotechnology Inc
Experimental: (§1) Purified p60^c-scr and Src-family kinases p56^lck, p56^lyn, and p55^fyn were obtained from Upstate Biotechnology Inc. Kinase assays were performed as described by A. Gezit, J. Med.

[2] = target: T2, p56^lyn (Homo sapiens, UniProt P07948); experiment: kinase assay, p56lyn; format: biochemical; conditions: poly [Glu,Tyr](4:1) substrate
T2 construct: purchased Upstate Biotechnology Inc
Experimental: as §1

[3] = tested on: HL-60 cells; experiment: cell growth inhibition, HL-60 promyelocytic leukemia; format: cell-based; conditions: Homo sapiens, HL-60, 72 h; 3 days, Trypan Blue viable cell count
Experimental: (§2) The source of the cancer cell lines were: HL-60, HT-29, and BT-20, from American Type Culture Collection, Rockville, Maryland; A-1 from Dr. M. H. Freedman, MG-63, from Dr. M. Hurley, and human fibroblast from Dr. R. Zeff. Cells were grown in the culture treated with or without various compounds for 3 days. Cells (except BT-20) were then recovered and treated with Trypan Blue and the number of viable cells counted. For BT-20 cells, a new rapid and simple method using Alamar Blue Assay was used, as described by S. A. Ahmed et al., J. Immunol. Meth., 170, 211 (1994). The symbol i on the Table indicates "not
(§3) As shown on Table 3, several compounds of formula (I) were tested for their ability to inhibit the growth of human cancer cells including promyelocytic leukemia HL-60 cells (S. J. Collins et al., Blood, 70, 1233 (1987)); acute lymphocytic leukemia A-1 cells, (S. Kamel-Reid et al., Leukemia, 6, 8 (1992)); human osteosarcoma MG-63, (A. Pirskanen et al., J. Bone and Mineral Res., 1635 (1994)); human breast carcinoma BT-20 (G. G. Castles et al., Cancer Res., 58, 5934 (1992)); and human colon adenocarcinoma HT-29 cells (R. Garcia et al., Oncogene, 6, 1983 (1991)).

[4] = tested on: A-1 cells; experiment: cell growth inhibition, A-1 acute lymphocytic leukemia; format: cell-based; conditions: Homo sapiens, 72 h; 3 days, Trypan Blue viable cell count
Experimental: as §2

[5] = tested on: BT-20; experiment: cell growth inhibition, BT-20 breast carcinoma (Alamar Blue); format: cell-based; conditions: Homo sapiens, BT-20, 72 h, 3 days, Alamar Blue Assay
Experimental: as §2, §3

[6] = target: T3, p56^lck (Homo sapiens, UniProt P06239); experiment: kinase assay, p56lck; format: biochemical; conditions: poly [Glu,Tyr](4:1) substrate
T3 construct: purchased Upstate Biotechnology Inc
Experimental: as §1

[7] = target: p55^fyn; experiment: kinase assay, p55fyn; format: biochemical; conditions: poly [Glu,Tyr](4:1) substrate
Experimental: as §1

[8] = tested on: MG-63; experiment: cell growth inhibition, MG-63 osteosarcoma; format: cell-based; conditions: Homo sapiens, MG-63, 72 h; 3 days, Trypan Blue viable cell count
Experimental: as §2, §3

[9] = tested on: HT-29 cells; experiment: cell growth inhibition, HT-29 colon adenocarcinoma; format: cell-based; conditions: Homo sapiens, HT-29, 72 h; 3 days, Trypan Blue viable cell count
Experimental: as §2, §3

[10] = tested on: human cancer cells (HL-60, A-1, MG-63, BT-20, HT-29); experiment: inhibition of growth of human cancer cell lines, overall comparison; format: cell-based; conditions: 9TA, 18TA compared with e.g. 9TO, 18TO
Experimental: as §2, §3

[11] = tested on: Human fibroblasts cells; experiment: cell growth inhibition, human fibroblasts; format: cell-based; conditions: for IC50: Homo sapiens, Fibroblast, 72 h, 3 days, Trypan Blue viable cell count
Experimental: as §2

T2 sequence (P07948 whole entry, species assumed): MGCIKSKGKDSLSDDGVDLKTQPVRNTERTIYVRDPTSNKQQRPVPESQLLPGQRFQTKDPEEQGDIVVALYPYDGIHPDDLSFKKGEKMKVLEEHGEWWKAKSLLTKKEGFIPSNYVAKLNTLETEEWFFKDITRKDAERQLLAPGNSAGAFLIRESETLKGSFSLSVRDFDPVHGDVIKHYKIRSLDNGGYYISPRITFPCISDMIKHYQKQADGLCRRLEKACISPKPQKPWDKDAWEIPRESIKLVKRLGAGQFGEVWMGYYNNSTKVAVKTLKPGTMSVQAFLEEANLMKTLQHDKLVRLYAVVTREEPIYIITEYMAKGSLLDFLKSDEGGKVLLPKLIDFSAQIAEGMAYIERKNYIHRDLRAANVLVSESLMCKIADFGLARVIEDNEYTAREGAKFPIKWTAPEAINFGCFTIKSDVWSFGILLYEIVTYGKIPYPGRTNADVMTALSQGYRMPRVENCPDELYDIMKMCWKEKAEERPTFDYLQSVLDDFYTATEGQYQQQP
T3 sequence (P06239 whole entry, species assumed): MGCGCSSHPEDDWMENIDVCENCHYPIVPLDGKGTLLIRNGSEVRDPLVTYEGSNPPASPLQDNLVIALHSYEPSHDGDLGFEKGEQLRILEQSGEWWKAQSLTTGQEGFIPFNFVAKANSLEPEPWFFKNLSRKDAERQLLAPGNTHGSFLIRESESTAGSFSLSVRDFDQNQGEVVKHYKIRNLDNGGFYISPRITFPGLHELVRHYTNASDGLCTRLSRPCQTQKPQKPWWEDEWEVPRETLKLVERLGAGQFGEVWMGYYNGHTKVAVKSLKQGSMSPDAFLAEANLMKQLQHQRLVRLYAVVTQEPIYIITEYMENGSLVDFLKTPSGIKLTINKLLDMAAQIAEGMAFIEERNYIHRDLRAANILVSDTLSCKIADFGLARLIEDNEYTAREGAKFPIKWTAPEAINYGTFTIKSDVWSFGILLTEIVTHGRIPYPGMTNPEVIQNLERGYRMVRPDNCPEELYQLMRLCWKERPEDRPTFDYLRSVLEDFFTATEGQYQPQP
T1 sequence (P12931 whole entry): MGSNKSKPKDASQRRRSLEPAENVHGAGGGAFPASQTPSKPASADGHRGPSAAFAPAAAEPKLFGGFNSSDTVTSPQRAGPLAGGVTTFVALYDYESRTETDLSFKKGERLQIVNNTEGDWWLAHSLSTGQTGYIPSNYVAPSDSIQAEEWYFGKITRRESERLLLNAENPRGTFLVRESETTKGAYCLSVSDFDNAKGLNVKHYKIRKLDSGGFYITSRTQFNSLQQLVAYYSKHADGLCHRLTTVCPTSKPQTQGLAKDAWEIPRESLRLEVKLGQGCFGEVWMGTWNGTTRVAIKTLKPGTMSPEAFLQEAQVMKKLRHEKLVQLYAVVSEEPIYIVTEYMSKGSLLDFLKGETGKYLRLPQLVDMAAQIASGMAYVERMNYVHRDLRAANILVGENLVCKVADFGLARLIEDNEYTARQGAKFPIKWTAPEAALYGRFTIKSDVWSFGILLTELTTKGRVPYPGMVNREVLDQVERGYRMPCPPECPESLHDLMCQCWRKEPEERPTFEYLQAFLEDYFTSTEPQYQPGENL

| Structure (SMILES) | IC50, p60^c-src [1] [µg/mL] | IC50 [3] [µg/mL] | IC50 [4] [µg/mL] | IC50 [5] [µg/mL] | IC50, p55^fyn [7] [µg/mL] | IC50, p56^lck [6] [µg/mL] | IC50 [9] [µg/mL] | further results |
| --- | --- | --- | --- | --- | --- | --- | --- | --- |
| N=c1oc2ccc(O)cc2cc1C(=O)Nc1cccc(O)c1 [Compound 7TA] | 1.3 (≈ 4.39 µM) | 6.5 (≈ 21.9 µM) | 4.5 (≈ 15.2 µM) | – | – | – | – | IC50 [2]: > 33.8 µM |
| N=c1oc2ccc(O)cc2cc1C(=O)Nc1ccc(O)cc1 [Compound 7T] | 3.2 (≈ 10.8 µM) | 4.2 (≈ 14.2 µM) | 3 (≈ 10.1 µM) | 4.5 (≈ 15.2 µM) | – | – | – | – |
| N=c1oc2cc(O)ccc2cc1C(=O)Nc1cccc(O)c1 [Compound 8TA] | 9 (≈ 30.4 µM) | 3.3 (≈ 11.1 µM) | – | – | – | – | – | IC50 [2]: > 33.8 µM |
| N=c1oc2cc(O)ccc2cc1C(=O)Nc1ccccc1O [Compound 8TO] | 0.6 (≈ 2.03 µM) | 8 (≈ 27 µM) | – | – | – | – | – | – |
| N=c1oc2cc(O)ccc2cc1C(=O)Nc1ccc(O)cc1 [Compound 8T] | 1.2 (≈ 4.05 µM) | 5 (≈ 16.9 µM) | 5 (≈ 16.9 µM) | 14 (≈ 47.3 µM) | – | – | – | – |
| N=c1oc2c(O)cccc2cc1C(=O)Nc1cccc(CO)c1 [Compound 9TABA] | 2.5 (≈ 8.06 µM) | – | 11 (≈ 35.4 µM) | – | 3 (≈ 9.67 µM) | – | – | potency relative to the hydroxylated parent compound (in words) ([1]; p60^c-src): not more potent; IC50 [6]: 64.5 µM; IC50 [8]: > 20 µg/mL |
| N=c1oc2c(O)cccc2cc1C(=O)Nc1ccccc1CO [Compound 9TOBA] | 1.8 (≈ 5.8 µM) | 6 (≈ 19.3 µM) | – | – | – | – | – | potency relative to the hydroxylated parent compound (in words) ([1]; p60^c-src): much more potent; IC50 [8]: 5 µg/mL (≈ 16.1 µM) |
| N=c1oc2c(O)cccc2cc1C(=O)Nc1ccccc1O [Compound 9TO] | – | 1.5 (≈ 5.06 µM) | 1.9 (≈ 6.41 µM) | – | > 20 | 1.2 (≈ 4.05 µM) | 4 (≈ 13.5 µM) | inhibition of p60^c-src kinase (in words) [1]: relatively weak activity |
| N=c1oc2c(O)cccc2cc1C(=O)Nc1ccc(O)cc1 [Compound 9T] | – | 2.5 (≈ 8.44 µM) | – | 7 (≈ 23.6 µM) | > 20 | 0.62 (≈ 2.09 µM) | 4 (≈ 13.5 µM) | IC50, p56^lyn [2]: 20 µg/mL (≈ 67.5 µM); IC50 [8]: 1.25 µg/mL (≈ 4.22 µM) |
| COc1ccc2cc(C(=O)Nc3ccc(O)cc3)c(=N)oc2c1 [Compound 15T] | – | 7.5 (≈ 24.2 µM) | – | > 20 | – | – | – | fold less active than 8T ([1]; p60^c-src, versus 8T): 8 fold |
| COc1ccc2oc(=N)c(C(=O)Nc3ccc(O)cc3)cc2c1 [Compound 16T] | 12.5 (≈ 40.3 µM) | 5 (≈ 16.1 µM) | – | > 20 | – | 7.5 (≈ 24.2 µM) | – | fold less active than 7T ([1]; p60^c-src, versus 7T): 4 fold |
| CC(=O)c1cccc(NC(=O)c2cc3ccc(O)c(O)c3oc2=N)c1 [Compound 18ACTA] | 3 (≈ 8.87 µM) | – | 15 (≈ 44.3 µM) | – | – | – | – | IC50, p56^lyn [2]: 10 µg/mL (≈ 29.6 µM) |
| N=c1oc2c(O)c(O)ccc2cc1C(=O)Nc1ccccc1 [Compound 18AN] | – | > 20 | 17 (≈ 57.4 µM) | – | > 20 | – | – | inhibition of p60^c-src kinase (in words) [1]: inactive; inhibition of cancer cell growth (in words) [10]: less active |
| N=c1oc2c(O)c(O)ccc2cc1C(=O)Nc1cccc(CO)c1 [Compound 18TABA] | 5 (≈ 15.3 µM) | 2.5 (≈ 7.66 µM) | 2.5 (≈ 7.66 µM) | – | > 20 | – | – | potency relative to the hydroxylated parent compound (in words) ([1]; p60^c-src): not more potent; IC50, p56^lyn [2]: 20 µg/mL (≈ 61.3 µM) |
| N=c1oc2c(O)c(O)ccc2cc1C(=O)Nc1ccccc1CO [Compound 18TOBA] | 0.9 (≈ 2.76 µM) | 6 (≈ 18.4 µM) | > 20 | – | > 20 | 5 (≈ 15.3 µM) | – | potency relative to the hydroxylated parent compound (in words) ([1]; p60^c-src): much more potent |
| N=c1oc2c(O)c(O)ccc2cc1C(=O)Nc1ccccc1O [Compound 18TO] | 12 (≈ 38.4 µM) | 2 (≈ 6.4 µM) | 2 (≈ 6.4 µM) | – | > 20 | 20 (≈ 64 µM) | 15 (≈ 48 µM) | inhibition of p60^c-src kinase (in words) [1]: relatively weak activity |
| N=c1oc2c(O)c(O)ccc2cc1C(=O)Nc1ccc(O)cc1 [Compound 18T] | 3.6 (≈ 11.5 µM) | 3.5 (≈ 11.2 µM) | 8 (≈ 25.6 µM) | 7.2 (≈ 23.1 µM) | > 20 | 5 (≈ 16 µM) | 20 (≈ 64 µM) | – |
| N=c1oc2cc(O)cc(O)c2cc1C(=O)Nc1cccc(O)c1 [Compound 19TA] | 1.25 (≈ 4 µM) | 2.5 (≈ 8.01 µM) | 15 (≈ 48 µM) | > 20 | – | 3.75 (≈ 12 µM) | 10 (≈ 32 µM) | IC50, p56^lyn [2]: 5 µg/mL (≈ 16 µM); inhibition of growth of human fibroblast cells (in words) [11]: not effective; IC50 [11]: > 20 µg/mL; IC50 [8]: 5 µg/mL (≈ 16 µM) |
| N=c1oc2cc(O)cc(O)c2cc1C(=O)Nc1ccccc1O [Compound 19TO] | 2.1 (≈ 6.72 µM) | 5 (≈ 16 µM) | 2.5 (≈ 8.01 µM) | > 20 | – | – | 0.625 (≈ 2 µM) | inhibition of growth of human fibroblast cells (in words) [11]: not effective; IC50 [11]: > 20 µg/mL; IC50 [8]: 2.5 µg/mL (≈ 8.01 µM) |
| N=c1oc2cc(O)cc(O)c2cc1C(=O)Nc1ccc(O)cc1 [Compound 19T] | 0.2 (≈ 0.64 µM) | 1 (≈ 3.2 µM) | 1 (≈ 3.2 µM) | – | – | 2 (≈ 6.4 µM) | 2.5 (≈ 8.01 µM) | fold more potent than the parent compound 25T ([1]; p60^c-src, versus 25T): 200 fold; IC50, p56^lyn [2]: 5 µg/mL (≈ 16 µM); inhibition of growth of human fibroblast cells (in words) [11]: not effective; IC50 [11]: > 20 µg/mL |
| N=c1oc2ccccc2cc1C(=O)Nc1ccc(O)cc1 [Compound 25T, 3-(N-4-hydroxyphenyl)carbamoyl-2-iminochromene] | – | > 10 | – | 10 (≈ 35.7 µM) | – | – | – | inhibition of p60^c-src kinase (in words) [1]: poorly inhibits; also recorded: inactive; inhibition of cancer cell growth (in words) [10]: less active |
| N=c1oc2ccccc2cc1C(=O)Nc1cccc(O)c1 [Compound 25TA] | 10 (≈ 35.7 µM) | – | – | – | – | – | – | – |
| COc1cccc2cc(C(=O)Nc3cccc(O)c3)c(=N)oc12 [Compound 32TA] | 1.3 (≈ 4.19 µM) | – | 12 (≈ 38.7 µM) | – | – | – | – | – |
